Assay results as given in patent publication US8841463B2, “Cathepsin C inhibitors” (GlaxoSmithKline Intellectual Property Development Limited, priority 2011, dated 2014).
Counter-ions that a name gives are not always drawn.

Molecular target: recombinant human cathepsin C (Homo sapiens, UniProt P53634)
Test: Recombinant Cathepsin C in vitro assay (cleavage of fluorogenic substrate H-Ser-Tyr-AMC)
Assay type: biochemical
Conditions: average of two experiments; one hour preincubation, pH 5.5, room temperature; read-out: concentration giving 50% cathepsin C inhibition
Procedure: B. Recombinant Cathepsin C In Vitro Assay:
The activity of recombinant human cathepsin C was measured by the cleavage of a fluorogenic substrate, H-Ser-Tyr-AMC. Briefly, 24 pM cathepsin C was incubated with test compound (e.g. inhibitor) in a buffer consisting of 50 mM sodium acetate, 30 mM sodium chloride, 1 mM CHAPS, 1 mM dithiothreitol, 1 mM EDTA, pH 5.5 at room temperature for one hour. After one hour of incubating test compound with cathepsin C, the activity assay was initiated by the addition of an equal volume of 0.010 mM H-Ser-Tyr-AMC in the same buffer. After one hour, the activity assay was stopped by the addition of ⅕ volume of 100 μM E-64. The reaction product was measured on a fluorescence reader set at an excitation wavelength of 360 nm and emission wavelength of 460 nm and equipped with a 400 nm dichroic mirror.

Sequence of recombinant human cathepsin C (P53634 25-463): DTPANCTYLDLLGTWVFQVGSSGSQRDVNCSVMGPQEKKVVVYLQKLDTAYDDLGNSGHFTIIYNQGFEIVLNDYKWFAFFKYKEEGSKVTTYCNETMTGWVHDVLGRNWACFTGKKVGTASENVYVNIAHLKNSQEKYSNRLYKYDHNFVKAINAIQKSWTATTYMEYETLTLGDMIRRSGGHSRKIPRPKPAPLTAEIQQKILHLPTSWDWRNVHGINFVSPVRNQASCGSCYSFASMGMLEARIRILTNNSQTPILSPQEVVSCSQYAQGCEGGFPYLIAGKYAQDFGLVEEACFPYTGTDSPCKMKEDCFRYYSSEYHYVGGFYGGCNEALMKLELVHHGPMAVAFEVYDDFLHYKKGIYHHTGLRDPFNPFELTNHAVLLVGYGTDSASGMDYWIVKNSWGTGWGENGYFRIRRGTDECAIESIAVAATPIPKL

Structure (SMILES) | IC50 [nM]
CC[C@@H](/C=C/C(=O)N1CCc2ccccc21)NC(=O)C1(N)CCOCC1 [Example 1, 4-amino-N-[(1S,2E)-4-(2,3-dihydro-1H-indol-1-yl)-1-ethyl-4-oxo-2-buten-1-yl]tetrahydro-2H-pyran-4-carboxamide hydrochloride] | < 1
CC(C)C[C@@H](/C=C/C(=O)N1CCc2ccccc21)NC(=O)C1(N)CCOCC1 [Example 2, 4-amino-N-[(1S,2E)-4-(2,3-dihydro-1H-indol-1-yl)-1-(2-methylpropyl)-4-oxo-2-buten-1-yl]tetrahydro-2H-pyran-4-carboxamide hydrochloride] | < 1
